Test results: patent US20160030407A1, “Method of Treating Inflammatory Lung Disease” (priority 2010, published 2016)
“And” between values parts separate entries of the source, which are not always exact repeats. Identical values can stand only once.

Tests used:
[1] = Brain extract concentrations after single i.v. bolus; type: in vivo, Sprague-Dawley rats; settings: for Concentration in rat brain extract: individual rats
Description: Six rats (3 males and 3 females) were dosed per dose group. […] Plasma and brain homogenates were stored at −80° C. until analysis.
An additional 48 rats (24 males and 24 females) received a single intravenous dose via the tail vein at the same doses as mentioned above. At 30 and 360 minutes post administration, 6 rats (3 males and 3 females) per dose group, per time point were euthanized, bled via cardiac puncture, and perfused, and brains were collected. The brains were homogenized. Blood was spun, and plasma was collected. Plasma and brain homogenate were stored at −80° C.
The animals were weighed prior to dosing and received a single i.v. dose of either test compound at a volume of 5 mL/kg. Blood was collected via the venus plexus (retro-orbital) into tubes containing (K2) EDTA. No more than 0.5 mL was collected per time point. […] The brain was removed, weighed, homogenized in sterile 0.9% saline at a volume equal to its weight, and stored at −80° C.
The amount of the test agent in the supernatant was determined by liquid chromatography tandem mass spectrometry (LC/MS/MS).
Analysis. Samples were analyzed by LC/MS/MS using an Agilent 6410 mass spectrometer coupled with an Agilent 1200 high pressure liquid chromatography (HPLC) and a CTC PAL chilled autosampler, all controlled by MassHunter software (Agilent). After separation on a hydrophilic interaction liquid chromatography (HILIC) HPLC column (Sepax) using an acetonitrile-ammonium acetate/acetic acid gradient system, peaks were analyzed by mass spectrometry (MS) using ESI ionization in multiple reaction monitoring (MRM) mode. MassHunter software was used to calculate the concentration of the test compounds in samples from the peak area using the appropriate calibration curves.

[2] = Single i.v. dose toxicity: urinalysis; type: in vivo, Sprague-Dawley rats; settings: for Urinalysis KETONES / Urinalysis BILIRUBIN / Urinalysis BLOOD / Urinalysis PROTEIN / Urinalysis pH / Urinalysis CLARITY / Urinalysis COLOR / Urinalysis GLUCOSE / Urinalysis UROBILINOGEN / Urinalysis VOLUME: individual animals M and F
Text: On day 15, urine was collected on all surviving animals for urinalysis. The animals were euthanized and bled via cardiac puncture. Blood was collected for hematology, clinical chemistry, and coagulation analysis. Tissues were collected, weighed, and stored in 10% neutral-buffered formalin for possible future analysis.

nAChR α3/β4 = nAChR α3/β4 (Homo sapiens, UniProt P30926+P32297); test: nAChR α3/β4 channel agonist assay (FLIPR); type: cell-based; settings: 0.3-1000 μM
Description: Briefly, cells were incubated with […] dye for 30 min at 37° C.

autoimmune thyroiditis = test: Autoimmune thyroiditis model (Example 16B): thyroid histopathology; type: in vivo, CBA/J mice; settings: 0.05 mg/ml in drinking water; day 21; p=0.023
Description: In another experiment, eighteen CBA/J female mice were immunized with mouse thyroglobulin, emulsified in complete Freund's adjuvant, on day 0 and day 7. One group of mice (n=10) drank regular water. […] Mice were sacrificed 21 days after the first immunization to collect the thyroid gland and the blood. The thyroid was analyzed for the presence of infiltrating mononuclear cells. The blood was analyzed for the levels of antibodies against thyroglobulin.

IL-1β = test: LPS-induced IL-1β release in whole human blood; type: cell-based
Description: Whole human blood was treated with LPS to stimulate inflammatory responses. […] The inflammatory molecule IL-1β was measured after 16 hours.

BACE-1 mRNA = BACE-1 mRNA levels in SHSY cells (RTPCR); type: cell-based, human; settings: 30 minutes, TNF-α used to increase BACE expression
Text: TNF-α was used to increase BACE expression.

[3] = Single i.v. dose toxicity: body weights and food consumption; type: in vivo, Sprague-Dawley rats; settings: for Mean food consumption/day: 14 days, 0.1 mg/kg
Description: Body weight and food consumption was measured daily for 14 days. On day 15, urine was collected on all surviving animals. The animals were euthanized and bled via cardiac puncture, and blood was collected for analysis. Tissues were collected, weighed, evaluated for gross abnormalities, and stored in 10% neutral-buffered formalin.
All animals were observed daily.

[4] = Anatabine dose 0.1 mg/kg, 0.1 mg/kg, female rats
[5] = Anatabine dose 0.1 mg/kg, 0.1 mg/kg, male rats
[6] = Anatabine dose 0.1 mg/kg, female rats
[7] = Anatabine dose 0.1 mg/kg, male rats
[8] = Anatabine dose 0.75 mg/kg, 0.75 mg/kg, female rats
[9] = Anatabine dose 0.75 mg/kg, 0.75 mg/kg, male rats
[10] = Anatabine dose 0.75 mg/kg, female rats
[11] = Anatabine dose 0.75 mg/kg, male rats
[12] = Anatabine 0.1 mg/kg, F, individual rats
[13] = Anatabine 0.1 mg/kg, M, individual rats
[14] = Anatabine 0.75 mg/kg, F, individual rats
[15] = Anatabine 0.75 mg/kg, M, individual rats
[16] = single i.v. 0.1 mg/kg, male rats

Sequence of nAChR α3/β4 (P32297 32-505): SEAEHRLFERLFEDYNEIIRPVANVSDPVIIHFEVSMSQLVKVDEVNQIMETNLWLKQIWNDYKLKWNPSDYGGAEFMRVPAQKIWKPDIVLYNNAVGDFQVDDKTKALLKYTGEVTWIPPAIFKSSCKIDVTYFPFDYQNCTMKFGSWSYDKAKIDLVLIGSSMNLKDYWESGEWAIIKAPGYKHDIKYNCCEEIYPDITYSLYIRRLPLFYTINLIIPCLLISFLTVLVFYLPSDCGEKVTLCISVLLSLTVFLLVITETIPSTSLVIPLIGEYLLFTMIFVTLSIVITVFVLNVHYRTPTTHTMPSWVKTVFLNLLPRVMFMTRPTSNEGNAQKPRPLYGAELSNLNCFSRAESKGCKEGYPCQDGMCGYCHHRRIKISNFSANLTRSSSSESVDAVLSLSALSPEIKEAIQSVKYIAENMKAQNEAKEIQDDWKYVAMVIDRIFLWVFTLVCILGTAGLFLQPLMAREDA
Sequence of nAChR α3/β4 (P30926 22-498): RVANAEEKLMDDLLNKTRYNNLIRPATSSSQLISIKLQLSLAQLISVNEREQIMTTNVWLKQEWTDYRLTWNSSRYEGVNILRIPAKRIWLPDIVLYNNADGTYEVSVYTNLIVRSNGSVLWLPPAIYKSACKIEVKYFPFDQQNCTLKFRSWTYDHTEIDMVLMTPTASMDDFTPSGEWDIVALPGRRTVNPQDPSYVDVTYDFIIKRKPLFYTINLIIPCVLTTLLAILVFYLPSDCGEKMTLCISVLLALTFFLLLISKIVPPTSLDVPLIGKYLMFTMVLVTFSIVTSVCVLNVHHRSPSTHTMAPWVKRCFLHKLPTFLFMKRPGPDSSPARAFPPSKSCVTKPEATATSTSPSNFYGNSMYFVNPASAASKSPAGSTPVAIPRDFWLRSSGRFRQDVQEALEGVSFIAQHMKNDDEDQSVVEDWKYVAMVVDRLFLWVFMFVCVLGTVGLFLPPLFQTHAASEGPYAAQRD

SMILES: C1=CCC(c2cccnc2)NC1 (racemic) [Anatabine, 1,2,3,6-tetrahydro-[2,3′]bipyridinyl]
- Concentration in rat brain extract ([1]; Anatabine 0.1 mg/kg dose group, time point 0.5 hr): <LLQ
- Concentration in rat brain extract ([1]; Anatabine 0.1 mg/kg dose group, time point 6 hr): <LLQ
- Concentration in rat brain extract ([1]; Anatabine 0.1 mg/kg dose group, time point 24 hr): <LLQ
- Concentration in rat brain extract ([1]; Anatabine 0.75 mg/kg dose group, time point 24 hr): <LLQ
- Concentration in rat brain extract ([1]; Anatabine 1.0 mg/kg dose group, time point 6 hr): <LLQ
- Concentration in rat brain extract ([1]; Anatabine 1.0 mg/kg dose group, time point 24 hr): <LLQ
- Avg. Conc. (Combined Male and Female) ([1]; Rat Brain, Anatabine 0.75 mg/kg, combined, 24 hr): <LLQ
- Avg. Conc. (Male or Female) ([1]; Rat Brain, Anatabine 0.75 mg/kg, female, 24 hr): <LLQ
- Avg. Conc. (Male or Female) ([1]; Rat Brain, Anatabine 0.75 mg/kg, male, 24 hr): <LLQ
- Avg. Conc. (Male or Female) ([1]; Rat Brain, Anatabine 1.0 mg/kg, female, 24 hr): <LLQ
- appearance in brain tissue ([1]; rat, following i.v. administration): rapidly appear in brain tissue
- Mean concentration in rat brain extracts ([1]; single i.v. 0.75 mg/kg, female, 24 hr): <LLQ
- Mean concentration in rat brain extracts ([1]; single i.v. 0.75 mg/kg, male, 24 hr): <LLQ
- Mean concentration in rat brain extracts ([1]; single i.v. 1.0 mg/kg, female, 24 hr): <LLQ
- Urinalysis KETONES ([2]; Anatabine dose 0.1 mg/kg, 0.1 mg/kg): NEGATIVE
- Urinalysis BILIRUBIN [2, 4]: NEGATIVE
- Urinalysis BLOOD [2, 4]: NEG- (3×) and TRACE
- Urinalysis PROTEIN [2, 4]: NEG-
- Urinalysis pH [2, 4]: 7.5 (2×) and 7 and 8
- Urinalysis BILIRUBIN [2, 5]: NEGATIVE
- Urinalysis BLOOD [2, 5]: TRACE (2×) and NEG-
- Urinalysis PROTEIN [2, 5]: TRACE (3×) and NEG-
- Urinalysis pH [2, 5]: 8.5 and 7.5 (2×) and 7
- Urinalysis CLARITY [2, 6]: HAZY
- Urinalysis COLOR [2, 6]: YELLOW
- Urinalysis GLUCOSE [2, 6]: NEGATIVE
- Urinalysis UROBILINOGEN [2, 6]: NORMAL
- Urinalysis VOLUME [2, 6]: <0.5 mL
- Urinalysis CLARITY [2, 7]: HAZY
- Urinalysis COLOR [2, 7]: YELLOW
- Urinalysis GLUCOSE [2, 7]: NEGATIVE
- Urinalysis UROBILINOGEN [2, 7]: NORMAL
- Urinalysis VOLUME [2, 7]: <0.5 mL
- Urinalysis CLARITY ([2]; Anatabine dose 0.75 mg/kg): HAZY
- Urinalysis COLOR ([2]; Anatabine dose 0.75 mg/kg): YELLOW
- Urinalysis VOLUME ([2]; Anatabine dose 0.75 mg/kg): <0.5 mL
- Urinalysis PROTEIN ([2]; Anatabine dose 0.75 mg/kg, 0.75 mg/kg): TRACE
- Urinalysis BILIRUBIN [2, 8]: NEGATIVE
- Urinalysis BLOOD [2, 8]: TRACE and NEG-
- Urinalysis KETONES [2, 8]: NEGATIVE
- Urinalysis pH [2, 8]: 7.5 and 6 and 8 (2×)
- Urinalysis BILIRUBIN [2, 9]: NEGATIVE
- Urinalysis BLOOD [2, 9]: TRACE and NEG- (3×)
- Urinalysis KETONES [2, 9]: NEGATIVE
- Urinalysis pH [2, 9]: 7
- Urinalysis GLUCOSE [2, 10]: NEGATIVE
- Urinalysis UROBILINOGEN [2, 10]: NORMAL
- Urinalysis GLUCOSE [2, 11]: NEGATIVE
- Urinalysis UROBILINOGEN [2, 11]: NORMAL
- urinalysis parameters vs controls ([2]; rat, day 15 after single i.v. dose): no notable differences in any of the urinalysis parameters
- agonist activity (nAChR α3/β4): showed agonist activity
- frequency and severity of thyroiditis (autoimmune thyroiditis): developed thyroiditis less frequently and of lower severity
- IL-1β production over time (IL-1β; whole human blood + LPS (Example 15)): rapid and continuous effect on the suppression
- accumulation of IL-1β (IL-1β; whole human blood + LPS, 16 hours (Example 13)): reduced accumulation of IL-1β
- IL-1β, area under the dose-response curve (IL-1β; whole human blood + LPS, 16 hours (Example 14)): reduced accumulation of IL-1β
- BACE-1 mRNA expression (BACE-1 mRNA): reduced this signal in a concentration-dependent manner
- day 7 B.W. [3, 12]: 222.0 g
- day 12 B.W. [3, 12]: 240.0 g
- day 3 B.W. [3, 13]: 270.0 g
- day 4 B.W. [3, 13]: 270.0 g
- day 8 B.W. [3, 13]: 310.0 g
- day 9 B.W. [3, 13]: 310.0 g
- day 12 B.W. [3, 13]: 320.0 g
- day 13 B.W. [3, 13]: 360 g
- day 2 B.W. [3, 14]: 210.0 g
- day 4 B.W. [3, 14]: 230.0 g and 220.0 g
- day 8 B.W. [3, 14]: 220.0 g
- day 2 B.W. [3, 15]: 240.0 g
- day 8 B.W. [3, 15]: 300.0 g
- day 13 B.W. [3, 15]: 330 g
- Mean weight increase by day 14 ([3]; single i.v. 0.1 mg/kg, female rats): 39.0 g
- Mean weight increase by day 14 [3, 16]: 132.5 g
- Mean food consumption/day [3, 16]: 31.0 g
- Mean food consumption/day ([3]; single i.v. 0.1 mg/kg, male rats, listed as anatabine): statistically higher
- Mean weight increase by day 14 ([3]; single i.v. 0.75 mg/kg anatabine, female rats): 43.1 g
- Mean weight increase by day 14 ([3]; single i.v. 0.75 mg/kg anatabine, male rats): 111.6 g
